Results on 3 compounds are retold here after publication PMC11898488, “A2A Adenosine Receptor Antagonists and Their Efficacy in Rat Models of Parkinson’s Disease” (Cells, 2025).

Read-outs that look alike come from different tables or passages of the source.

Data set [1] has as its target T1, human A2AAR (Homo sapiens, UniProt P29274).
T1 construct: expressed in transfected cells; host or cells: CHO cells, crude membrane fractions
In words: Radioligand binding, displacement of [3H]NECA at human A2AAR in CHO cells. The settings on record: for Selectivity A1/A2A / Selectivity A3/A2A: ratio of Ki values at human ARs; for Ki: [3H]-NECA displacement, human A2AAR in CHO cells, geometric mean with 95% confidence limits, read-out: Ki A2A. The procedure:
(§1) The radioligand binding experiments were carried out exactly as described previously. For A1AR binding, 1 nM [^3H]CCPA was used as a radioligand, whereas 30 and 10 nM [^3H]NECA were used for A2A and A3 ARs, respectively. Nonspecific binding was determined in the presence of 1 mM theophylline (A1AR) or […] R-PIA (A2A and A3 ARs). Ki values were calculated from competition curves by nonlinear curve fitting with the program SCTFIT [31].
(§2) CHO cells stably transfected with human ARs were grown adherently and maintained in Dulbecco’s Modified Eagles Medium with nutrient mixture F12 (DMEM/F12) without nucleosides, containing 10% fetal calf serum, penicillin (100 U/mL), streptomycin (100 μg/mL), L-glutamine (2 mM), and Geneticin (G-418, 0.2 mg/mL) at 37 °C in 5% CO2/95% air, as described earlier. For radioligand binding studies and measurement of adenylyl cyclase activity, crude membrane fractions were prepared from fresh or frozen cells with two different protocols described earlier. The determination of adenylyl cyclase activity followed the procedure described earlier. IC50 values for the inhibition of adenylyl cyclase stimulated (in the case of A2BAR) with 5 μM NECA were calculated with the Hill equation and converted to Ki values with the Cheng and Prusoff equation [32].
(§3) [^3H]CCPA (2-chloro-N^6-cyclopentylAdo) and [^3H]NECA (5′-N-ethylcarboxamidoAdo) were used as specific radioligands at A1ARand A2A / A3 ARs, respectively. Furthermore, the ability of the same compounds to inhibit NECA-stimulated adenylyl cyclase activity was evaluated at the A2BAR subtype. The results of the binding studies (A1, A2A, and A3 ARs) and functional data (A2BAR) are reported in Table 1 as Ki or IC50 values in nM, together with the data on the reference compounds 1–3.
For orientation: In a radioligand displacement assay an active substance lowers the binding of a labelled ligand.

In data set [2] the test system is spontaneous motility. As to the kind of experiment: Spontaneous motility in rats. As to conditions: for Effect on spontaneous motility: 5 mg/kg i.p.; for Effect on motility at higher doses: 10 and 15 mg/kg. The class given is in vivo, rat.
The target of data set [3] is T2, human A1AR (Homo sapiens, UniProt P30542).
T2 construct: expressed in transfected cells; host or cells: CHO cells, crude membrane fractions
T2 sequence (P30542 1-326): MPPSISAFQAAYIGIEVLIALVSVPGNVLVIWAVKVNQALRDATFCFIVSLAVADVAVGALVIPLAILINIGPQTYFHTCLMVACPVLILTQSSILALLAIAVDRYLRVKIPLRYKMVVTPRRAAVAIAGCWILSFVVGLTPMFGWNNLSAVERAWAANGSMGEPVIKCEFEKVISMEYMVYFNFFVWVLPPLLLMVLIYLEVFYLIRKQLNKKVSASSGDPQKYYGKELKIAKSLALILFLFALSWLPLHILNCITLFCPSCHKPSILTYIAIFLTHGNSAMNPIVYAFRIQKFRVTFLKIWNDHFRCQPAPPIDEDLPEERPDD
The settings on record: [3H]-CCPA displacement, human A1AR in CHO cells; geometric mean with 95% confidence limits; read-out: Ki A1; cited from earlier work.

Data set [4] concerns the target T1, human A2AAR. As to conditions: [3H]-NECA displacement, human A2AAR in CHO cells; geometric mean with 95% confidence limits; read-out: Ki A2A; cited from earlier work.
In data set [5] the target is T3, human A3AR (Homo sapiens, UniProt P0DMS8).
T3 construct: expressed in transfected cells; host or cells: CHO cells, crude membrane fractions
T3 sequence (P0DMS8 1-318): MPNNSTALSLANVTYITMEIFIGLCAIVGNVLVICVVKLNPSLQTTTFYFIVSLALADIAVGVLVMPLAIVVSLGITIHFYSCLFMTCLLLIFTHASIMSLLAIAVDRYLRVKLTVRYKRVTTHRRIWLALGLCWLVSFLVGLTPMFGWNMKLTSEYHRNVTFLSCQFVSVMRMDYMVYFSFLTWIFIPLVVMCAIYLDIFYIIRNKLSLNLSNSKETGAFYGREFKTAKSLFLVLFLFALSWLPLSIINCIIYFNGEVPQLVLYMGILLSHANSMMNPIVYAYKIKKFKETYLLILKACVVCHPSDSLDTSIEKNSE
As to conditions: [3H]-NECA displacement, human A3AR in CHO cells; geometric mean with 95% confidence limits; read-out: Ki A3; cited from earlier work.

Data set [6] addresses T4, human A2BAR (Homo sapiens, UniProt P29275).
T4 construct: expressed in transfected cells; host or cells: CHO cells, crude membrane fractions
T4 sequence (P29275 1-332): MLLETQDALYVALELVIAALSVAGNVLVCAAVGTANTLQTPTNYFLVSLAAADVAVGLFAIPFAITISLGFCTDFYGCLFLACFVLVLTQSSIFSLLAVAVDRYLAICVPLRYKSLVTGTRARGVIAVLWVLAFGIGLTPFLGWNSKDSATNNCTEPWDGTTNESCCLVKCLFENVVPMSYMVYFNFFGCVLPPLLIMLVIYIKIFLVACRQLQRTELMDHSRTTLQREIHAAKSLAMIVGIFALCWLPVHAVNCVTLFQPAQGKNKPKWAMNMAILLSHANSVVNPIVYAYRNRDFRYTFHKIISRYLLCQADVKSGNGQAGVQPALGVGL
As to conditions: inhibition of NECA-stimulated AC activity, CHO cells expressing human A2BAR; geometric mean with 95% confidence limits; read-out: IC50 A2B; cited from earlier work.

For data set [7], the target named is T2, human A1AR. As to the kind of experiment: Radioligand binding, displacement of [3H]CCPA at human A1AR in CHO cells. As to conditions: [3H]-CCPA displacement, geometric mean with 95% confidence limits, read-out: Ki A1. As for the experimental part: as §1, §2, §3
Data set [8] concerns the target T3, human A3AR. As to the kind of experiment: Radioligand binding, displacement of [3H]NECA at human A3AR in CHO cells. The settings on record: [3H]-NECA displacement, geometric mean with 95% confidence limits, read-out: Ki A3. The procedure:
as §1, §2, §3

Data set [9] addresses T4, human A2BAR. In words: Inhibition of NECA-stimulated adenylyl cyclase activity at human A2BAR. The settings on record: inhibition of NECA-stimulated AC activity, CHO cells expressing human A2BAR; geometric mean with 95% confidence limits; read-out: IC50 A2B. Type of data set: biochemical. As for the experimental part:
as §2, §3

Data set [10] deals with tacrine-induced tremulous jaw movements. In words: Tacrine-induced tremulous jaw movements. The class given is in vivo, rat. The settings on record: rats, 5 mg/kg i.p. pretreatment, tacrine 2.5 mg/kg i.p.; 60 min, versus vehicle. As for the experimental part:
Rats were divided into two groups and treated with vehicle or 4 (5 mg/kg. i.p.). Tacrine (2.5 mg/kg i.p.) was administered 20 min after vehicle or 4, and the number of TJMs and bursts of TJMs (i.e., episodes of consecutive TJMs) were measured for 60 min. TJMs were defined as vertical deflections of the lower jaw not directed at a particular stimulus. Yawns, tongue protrusions, and stereotypies, such as grooming, were not scored. In the tacrine-induced TJM tests, the mean and S.E.M of the number of TJMs and bursts were calculated. Significant differences between groups were evaluated by Student’s t-test.

T1 sequence (P29274 whole entry): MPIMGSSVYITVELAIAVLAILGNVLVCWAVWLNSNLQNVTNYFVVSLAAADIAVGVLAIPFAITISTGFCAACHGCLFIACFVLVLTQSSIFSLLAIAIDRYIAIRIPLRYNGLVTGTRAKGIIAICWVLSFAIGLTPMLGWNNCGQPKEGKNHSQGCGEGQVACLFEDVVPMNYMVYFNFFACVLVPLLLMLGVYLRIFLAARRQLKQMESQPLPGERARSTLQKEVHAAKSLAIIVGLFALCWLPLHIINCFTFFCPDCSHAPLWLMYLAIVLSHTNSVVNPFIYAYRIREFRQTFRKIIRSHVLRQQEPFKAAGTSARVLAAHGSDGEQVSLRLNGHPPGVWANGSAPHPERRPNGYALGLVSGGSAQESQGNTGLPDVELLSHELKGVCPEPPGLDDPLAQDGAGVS

Usually Ki stands for a measure of affinity in units of concentration, obtained from inhibition or displacement. As usually defined, the IC50 is the concentration that inhibits the measured activity by half. As for `CCn1c(Br)nc2c(N)nc(OCCc3ccccc3)nc21` [Compound 1, 8-bromo-9-ethyl-2-phenetoxyadenine], in [1], the “Selectivity A1/A2A” value came out at 14 and the “Selectivity A3/A2A” value is listed as 641. Moreover, in data set [2], the “Effect on spontaneous motility” value is reported as “did not modify spontaneous motility” and the “Effect on motility at higher doses” value is reported as “caused hypermotility”. In data set [3], the Ki is 23 nM. Besides, in [4], the Ki was 1.7 nM. The Ki in data set [5] is 1090 nM. The IC50 in data set [6] was 569 nM.
Consider `CCOc1nc2c(N)nc(OCCc3ccccc3)nc2n1CC` [Compound 4, 8-ethoxy-9-ethyl-2-phenethoxyadenine], for which, in data set [7], the Ki is 86 nM. Moreover, in data set [1], the Ki worked out at 3.7 nM, the “Selectivity A1/A2A” value is on record as 23 and the “Selectivity A3/A2A” value is 97. Besides, in data set [8], the Ki stood at 359 nM. Besides, the IC50 in data set [9] is 6510 nM. In data set [10], the “Number of tremor bursts induced by tacrine” value is listed as “but not tremor bursts” and the “Number of tremulous jaw movements induced by tacrine” value is reported as “significantly reduced”. In data set [2], the “Effect on spontaneous motility” value is on record as “did not modify spontaneous motility” and the “Effect on motility at higher doses” value is “caused hypermotility”.
For `CCn1c(I)nc2c(N)nc(OCCc3ccccc3)nc21` [Compound 5, 9-ethyl-8-iodo-2-phenethoxy-9H-purin-6-amine], the Ki in data set [7] came to 25 nM. Besides, in [1], the Ki was 1.2 nM, the “Selectivity A1/A2A” value amounted to 21 and the “Selectivity A3/A2A” value came to 408. In data set [8], the Ki was 489 nM. Further, the IC50 in data set [9] was found to be 719 nM. Besides, in data set [2], the “Effect on spontaneous motility” value is on record as “did not modify spontaneous motility” and the “Effect on motility at higher doses” value is given as “caused hypermotility”.
